According to patent US20250064758A1 (priority 2023, published 2025):

What was measured:
Format in all cases: cell-based
[1] = system: SARS-COV-2 Omicron variant BA.5
[2] = system: SARS-COV-2 Omicron variant BA.4
[3] = system: SARS-COV-2 Delta variant B.1.617.2

Structure (SMILES) | SARS-CoV-2 replication fitness (viral gene copies in cell supernatant) [1] | reduction in viral load [2] | reduction in viral load [3] | reduction in viral load [1]
CC(C)(C)NCC(O)COc1cccc2c1CC(O)C(O)C2 (stereo not drawn) [Nadolol] | didn't affect | – | – | –
CC(C)NCC(O)COc1cccc2ccccc12 (stereo not drawn) [Propranolol, 1-(isopropylamino)-3-(1-naphthyloxy)-2-propanol] | – | 2-3 log10 | 2-3 log10 | 2-3 log10
CC(C)NCC(O)COc1ccc(CC(N)=O)cc1 (stereo not drawn) [atenolol] | didn't affect | – | – | –
CC(C)NCC(O)c1ccc(O)c(O)c1 (stereo not drawn) [isoproterenol] | didn't affect | – | – | –
